Patent US8569007B2, “Method for reducing the appearance of false positive bands in SDS-page analysis of proteolytic digestion of a sample” (Merck Sharp & Dohme Corp., priority 2006, dated 2013)

System: thiol-protease
Details: 100 μM E-64; anti-IGF1R antibody substrate; overnight at room temperature; reducing SDS-PAGE (FIG. 5)
Procedure: Gels containing 4-20% polyacryamide were used for reducing SDS-PAGE. Recipes for buffers were as follows: • 1.5M Tris pH 8.8: Dissolve 90.73 g Tris base in 400 ml DI H2O. pH to 8.8 with Hydrochloric Acid. Bring to volume of 500 ml with DI H2O, Store at 4° C. (This is one of the components used to make pH 8.8 Sample Buffer—below) • pH 8.8 Sample Buffer: Combine the following: 228 ml of DI H2O, 50 ml Glycerol, 50 ml 1.5M Tris pH 8.8, 50 ml 10% SDS solution, and 10 ml 0.05% Bromophenol Blue. Store at 4° C. • 2× Reducing Sample Buffer: Prepare 3% by volume 2-Mercaptoethanol in pH 8.8 Sample Buffer. Prepare fresh prior to use.
The buffers were combined with the samples in equal volumes and allowed to sit overnight at room temperature before boiling. This increases the sensitivity of the assay for protease activity. The samples were then boiled directly before submitting for SDS-PAGE.
E-64 was dissolved in DMSO and EDTA was dissolved in sterile distilled water. Samples were allowed to incubate overnight at room temperature. Samples were then combined in equal parts with anti-IGF1R drug substance to yield a final concentration of 0.5 mg/ml antibody. Reducing buffer was added in equal parts to the samples containing antibody. Following overnight incubation, these samples were then loaded onto gels for reducing SDS-PAGE for a final load of 10-12 μg of antibody. […]

CC(C)C[C@H](NC(=O)[C@H]1O[C@@H]1C(=O)O)C(=O)NCCCCN=C(N)N (relative stereo) [E-64, trans-epoxy-succinyl-L-leucylamido-(4-guanidino)butane]
inhibition of active thiol-protease in 1615 CHO medium supplement: inhibited
